Counter-ions that a name gives are not always drawn.
What was measured:
A549 cell line = test: Flow cytometry of TRA-1-81+ cells; assay type: cell-based
Description: (§1) Flow cytometry. TRA-1-60 PerCP-efluor710 (eBioscience, 1:50) and TRA-1-81 PE (eBioscience, 1:100) were used. Cells were blocked with 5% FBS plus mouse IgM isotype control antibody (eBioscience, 1:100) at room temperature for 15 min, then stained on ice for 30 min. Stained cells were resuspended in PBS containing 300 nM DAPI and proceeded to analysis or sorting. Cell apoptosis was analyzed with FITC-AnnexinV labeling reagent (BD). Flow cytometry analysis was carried out on BD FACS Calibur with FlowJo 9.8 software. Sorting was performed with FACSVantage SE (Becton Dickinson).

TRA-1-81+ SW1990 cells = test: Flow cytometry of TRA-1-81+ cells; assay type: cell-based; conditions: SW1990; 5 days; GEM 50, 100 or 250 nM; flow cytometry
Description: as §1

[1] = test system: primary human xenograft tumor; test: Patient derived pancreatic adenocarcinoma xenograft in nude mice; assay type: in vivo; conditions: 50 mg/kg GEM twice weekly, one month; not in control tumors
Description: To examine whether TRA-1-60 expression correlates with chemotherapy treatment in primary tumors, a human pancreatic adenocarcinoma specimen was freshly collected after surgery, transplanted to nude mice and expanded subcutaneously. Mice carrying the primary human xenograft tumor were separated into two groups: one group was treated with 50 mg/kg GEM twice weekly while the other group received the same volume of PBS as control. After one month, xenograft tumors were stained with TRA-1-60 antibody. TRA-1-60 staining was detected in GEM-treated xenograft tumors but not control xenograft tumors (FIG. 7C, D), confirming that TRA-1-60 expression is positively correlated with chemoresistance.
(§2) Tissue samples were fixed with 4% paraformaldehyde overnight at 4° C., washed with 70% ethanol and then embedded in paraffin. After De-paraffin and rehydration, antigen retrieval was preceded in hot antigen retrieving buffer with a normal-pressure steamer for 30 min. blocking was proceeded 1 hour at room temperature in PBS containing 1% horse serum. Primary antibody was stained overnight at 4° C. in PBS plus 0.5% Triton X-100 and 5% horse serum. Secondary antibody was incubated at room temperature for 1.5 hours.

SW1990GR cells = test: Cell viability (DAPI nuclei count, high content imaging); assay type: cell-based; conditions: GEM-resistant line, read-out: IC50 for GEM (viability)
Description: To establish GR cell lines, cells were first cultured with 10 nM GEM till cell growth became stable. […] Once cell growth became stable in 100 nM GEM, cells were expanded in 100 nM GEM and used in assays.
(§3) Cell viability, colony formation, sphere formation and growth curve. To quantify viability, cells were plated into 96-well plates (6000/well) one night before treatment. […] After fixation, cell nuclei were stained with DAPI (Invitrogen). Plates were analyzed using MetaXpress High Content Image Acquisition and Analysis System (Molecular Devices).

SW1990 xenograft tumors [2] = test: GEM-resistant SW1990 xenograft passaged in nude mice; conditions: 50 mg/kg GEM i.p. twice a week, 3 passages in vivo, vs PBS control
Description: Whether the epitope of TRA-1-60 and TRA-1-81 antibodies also enriches CCCs in vivo, with xenograft tumors in nude mice derived from SW1990 cells implanted subcutaneously, was examined. Mice carrying tumors were randomly separated into two groups: one was treated with 50 mg/kg GEM via intraperitoneal injection twice a week for 4 weeks; the other was treated with the same volume of PBS as control. After 3 passages in vivo (˜6 months), the control and GR xenograft tumors were analyzed with immunofluorescence (FIG. 1K).
as §2

HCT116 cell line = test: Flow cytometry of TRA-1-81+ cells; assay type: cell-based; conditions: HCT116; flow cytometry
Description: as §1

HT29 cell line = test: Flow cytometry of TRA-1-81+ cells; assay type: cell-based
Description: as §1

DU145 cell line = test: Flow cytometry of TRA-1-81+ cells; assay type: cell-based; conditions: DU145; flow cytometry
Description: as §1

RKO cell line = test: Flow cytometry of TRA-1-81+ cells; assay type: cell-based
Description: as §1

SW1990 cells = test: Cell viability (DAPI nuclei count, high content imaging); assay type: cell-based; conditions: Homo sapiens; parental SW1990; read-out: IC50 for GEM (viability)
Description: as §3

SW1990 xenograft tumors [3] = test: Luciferase-labeled SW1990 xenograft in nude mice; assay type: in vivo
Description: CYM suppresses TRA-1-60 expression and blocks tumor growth in vivo. Next it was sought to validate the effects of CYM in vivo, using a xenograft model with luciferase-labeled SW1990 cells propagated in nude mice. Tumor-harboring mice were separated into 4 groups and treated with PBS (control), 2 mg/kg CYM, 50 mg/kg GEM, or 2 mg/kg CYM plus 50 mg/kg GEM through intraperitoneal injections twice per week. Luciferase intensity was quantified twice per week and normalized with the value obtained from the starting day. […] Consistent with imaging, of the four groups, mice treated with GEM plus CYM generated xenograft tumors with the smallest size (FIG. 6C) and weight (FIG. 6D).
as §2
Mouse Procedures. To assess in vivo effects of Cymarin (CYM), Luciferase-labelled SW1990 cells were transplanted to nude mice subcutaneously. Each mouse received four injections (5×10^5 cells/site). 12 days later, mice were randomly separated into 4 groups and treated with PBS (control), GEM (50 mg/kg bodyweight), CYM (2 mg/kg bodyweight) or GEM (50 mg/kg bodyweight) plus CYM (2 mg/kg bodyweight) twice weekly via intraperitoneal injection. Image acquisition was performed twice weekly with Xtreme Optical and X-ray small animal imaging system. Luciferin potassium salt (Regis), substrate of luciferase, was applied at 2 mg/25 g bodyweight in 150 μl PBS. Isoflurane (Henry Schein) was used for anesthesia during imaging.

TRA-1-60+ SW1990GR cells = test: High content screen / immunofluorescent staining of TRA-1-60+ cells; assay type: cell-based; conditions: SW1990GR
Description: Immunofluorescent staining. Primary antibodies were TRA-1-60 antibody (BD, 1:200), biotin conjugated TRA-1-60 antibody (eBioscience, 1:200). Secondary antibodies were donkey anti-mouse Alexa-efluor594 (Life technologies, 1:500) or streptavidin conjugated Alexa Fluor® 594 (Life technologies, 1:200).
Cells were fixed with 10% formalin for 20 min at room temperature. After 1 hour blocking in PBS with 5% horse serum and 0.3% triton-X100, primary antibodies were added to cells and incubated overnight at 4° C. Secondary antibody incubation was 1.5 hours at room temperature.
Chemical library screening. The Prestwick library of FDA approved drugs (˜1280 chemicals) plus a collection of drugs in clinical trials was used for the screen on SW1990GR cells.
For screening, SW1990GR cells were plated in 384-well plates (5000 cells/well). After overnight incubation, chemicals were added at 1 μM or 10 μM in duplicate. After 5 days of treatment, plates were stained with TRA-1-60 antibody and analyzed with MetaXpress High Content Image Acquisition and Analysis System (Molecular Devices). Wells treated with DMSO were set as control. The reduction was calculated by subtracting the percentage of TRA-1-60^+ cells in the chemical-treated wells from that of control wells. Standard deviation of TRA-1-60^+ percentage in control wells was calculated and 3-fold of this value was taken as threshold to pick up the primary hit.

With CCc1c2c(nc3ccc(OC(=O)N4CCC(N5CCCCC5)CC4)cc13)-c1cc3c(c(=O)n1C2)COC(=O)[C@]3(O)CC [CPT-11, Irinotecan hydrochloride] the “TRA-1-81+ cell population after acute drug treatment” value (A549 cell line) was “significant enhancement” and the “TRA-1-81+ cell population after acute drug treatment” value (TRA-1-81+ SW1990 cells) was “highly enriched”.

For Nc1ccn([C@@H]2O[C@H](CO)[C@@H](O)C2(F)F)c(=O)n1 [GEM, Gemcitabine hydrochloride], the “TRA-1-60 staining in patient derived xenograft tumors” value [1] was “detected”, the IC50 (SW1990GR cells) was 59.4 ± 5.3 nM and the “percentage of TRA-1-60+ cells in GR xenograft tumors” value (SW1990 xenograft tumors [2]) was “significantly increased”. For the same molecule, the “TRA-1-81+ cell population after acute GEM treatment” value (HCT116 cell line) was “significant increase”, the “TRA-1-81+ cell population after acute GEM treatment” value (HT29 cell line) was “significant increase” and the “TRA-1-81+ cell population after acute drug treatment” value (A549 cell line) was “significant increase”. For the same molecule, the “TRA-1-81+ cell population after acute drug treatment” value (TRA-1-81+ SW1990 cells) was “significant increase”, the “TRA-1-81+ cell population after acute GEM treatment” value (DU145 cell line) was “significant increase” and the “TRA-1-81+ cell population after acute GEM treatment” value (RKO cell line) was “significant increase”. The IC50 (SW1990 cells) was 9.6 ± 3.2 nM, the “tumor growth (luciferase intensity)” value (SW1990 xenograft tumors [3]; 3 weeks, i.p. twice per week, GEM 50 mg/kg, CYM 2 mg/kg) was “grew more slowly” and the “percentage of TRA-1-60+ cells in xenograft tumors” value (SW1990 xenograft tumors [3]; GEM-treated tumors without CYM, immunofluorescence) was about 27%.

C[C@@H]1O[C@@H](O[C@H]2C[C@@H](O)[C@]3(CO)[C@H]4[C@H](O)C[C@]5(C)[C@@H](C6=CC(=O)OC6)CC[C@]5(O)[C@@H]4CC[C@]3(O)C2)[C@H](O)[C@H](O)[C@H]1O [Ouabain] was tested, and the “validation of primary hit” value (TRA-1-60+ SW1990GR cells) was “able to be validated”.

Nc1nc2[nH]cc(CCc3ccc(C(=O)N[C@@H](CCC(=O)O)C(=O)O)cc3)c2c(=O)[nH]1 [PMX, Pemetrexed disodium heptahydrate] was tested, and the “TRA-1-81+ cell population after acute drug treatment” value (A549 cell line) was “significant enhancement” and the “TRA-1-81+ cell population after acute drug treatment” value (TRA-1-81+ SW1990 cells) was “highly enriched”.

— patent publication US20240277744A1, “TREATMENT OF CHEMORESISTANT CANCER CELLS” (Cornell University, priority 2023, published 2024)
